“And” between values parts separate entries of the source, which are not always exact repeats. Equal values may be shown once.

What all share (set-up): host or cells: CHO (tetracycline-inducible)
For test [1], the target named is T1, hASIC1a (Homo sapiens, UniProt P78348).
T1 sequence (P78348 1-528): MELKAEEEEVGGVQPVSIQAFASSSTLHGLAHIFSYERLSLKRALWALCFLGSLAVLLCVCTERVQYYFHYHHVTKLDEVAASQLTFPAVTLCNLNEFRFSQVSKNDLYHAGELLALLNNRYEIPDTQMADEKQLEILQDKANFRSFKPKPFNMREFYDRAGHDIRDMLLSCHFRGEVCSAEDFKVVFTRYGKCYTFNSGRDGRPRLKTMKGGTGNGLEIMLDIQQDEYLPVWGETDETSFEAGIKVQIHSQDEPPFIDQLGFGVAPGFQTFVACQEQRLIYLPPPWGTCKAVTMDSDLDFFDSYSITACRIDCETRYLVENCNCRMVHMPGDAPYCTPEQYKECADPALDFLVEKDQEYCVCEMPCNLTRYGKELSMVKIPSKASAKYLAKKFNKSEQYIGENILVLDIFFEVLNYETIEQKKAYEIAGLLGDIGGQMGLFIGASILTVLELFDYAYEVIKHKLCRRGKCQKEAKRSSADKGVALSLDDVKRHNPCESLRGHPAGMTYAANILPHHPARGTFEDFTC
Nature of the test: cell-based. The settings on record: pH 6.5 agonist, QPatch 48 single hole. Here is the method:
(§1) CHO hASIC1a cells were cultured according to vendor instructions (B-SYS GmbH) and HEK cells using standard in-house methods. Both cell lines were harvested using optimized protocols and re-suspended in serum-free media (Gibco CHO-S-SFM from Thermo Fisher Scientific for CHO cells, and Ex-Cell 302 from Merck Sigma-Aldrich for HEK cells) to obtain a suspension of cells with smooth membranes and little debris, before transfer to the automated cell hotel consisting of a 60 ml plastic container (Sophion SB2050) and a magnetic stir bar to prevent cell clumping. An aliquot of cells is then aspirated into a 1 ml microcentrifuge tube and spun down (typically 150 g for 2.5 min) and the supernatant discarded before a user-defined volume of external solution is added by the robot and the cells re-suspended to achieve the desired final cell suspension density before application to primed QPlates. Cell capture, sealing and whole-cell access was achieved using optimized QPatch protocols before currents were recorded using a holding potential of −60 mV. […] Cells were washed three times with external pH 7.3 solution (5 μl) between applications of activating acidic solution to establish a stable ASIC1a current baseline. […] Each concentration of reference compound was applied to each cell before (i.e., during each pH 7.3 application period) and during each pH stimulus (IC50 mode). Thus, each concentration of test compound was pre-incubated with cells for at least 2 min before, and then during each acidic solution challenge, before wash-off in a neutral pH 7.3 solution that contained the next concentration of the same compound. Cells were allowed at least 2 min between applications of acidic solution to enable ASIC1a receptors to recover from desensitization.
(§2) Concentration-response xC50 curves from Patchliner and QPatch 48 experiments were calculated by plotting %inhibition (antagonists) or activation (pH) data against concentration in Prism software (GraphPad), using the variable sigmoidal dose-response function to fit the Hill equation with theoretical minimum block of 0% and maximum block of 100% and a free constant for Hill slope.
In addition, this protocol is designed to avoid tachyphylaxis associated with a more acidic pH stimulus, and it allows the development of a ligand-gated ASIC1a channel assay that can distinguish between agonists, partial agonists and antagonists. […] Compounds were tested using the cumulative concentration-response assay format shown in Figure 5A, which includes a 2 min pre-incubation period for each concentration to allow test samples to reach and equilibrate with their binding site(s) in the pore or large extracellular binding domain of ASIC1 receptor trimers. Agonist effects can also be detected during this period as membrane current data is recorded after every liquid addition. […] Mean inhibition data for each test sample is plotted against Log[compound] and fit with a concentration-response function.
For orientation: Patch clamp records ionic current or voltage across a cell membrane.

The target in test [2] is T1, hASIC1a. Nature of the test: QPatch 48 APC, CHO hASIC1a, multi-hole (10 hole X-plate) recordings. The class given is cell-based. The settings on record: multi-hole recordings, QPatch 48. Here is the method:
as §1, §2
Before employing a more efficient multi-hole assay it is important to establish that this variant of the APC whole-cell recording format returns the same biophysics and pharmacology as single cell recordings. To this end we ran some of the reference compounds detailed above in 10 hole “X-plate” mode on the QPatch 48.

The target of test [3] is T1, hASIC1a. Description: SyncroPatch 384i APC, CHO hASIC1a, puff / stacked puff application. The class given is cell-based. The settings on record: pH 6.5. On the procedure:
CHO cells expressing ASIC1a (Charles River) were induced using tetracycline 3–6 h prior to dissociation into a cell suspension.
For recordings of stability and pharmacology using a bolus or “puff” application of ligand, 5 μl of the agonist solution was aspirated and applied to the cell; liquid dispense speed can be set between 1 and 100 μl/s, and a setting of 40 μl/s was used in these experiments. Following agonist addition, 50 μl of the total 90 μl volume in each well is then taken up by the tip to remove most of the agonist solution from the cell. […] For stability experiments, pH 6.5 was applied to each cell followed by a wash with pH 7.4 solution and a wait of 140 s to remove agonist and reverse any desensitization, before a second application of pH 6.5 was made. This sequence was repeated 6–7 times on each cell. For pharmacology experiments, ASIC1a responses were evoked 3 times by pH 6.5 application followed by pre-incubation in the inhibitor for 140 s, after which the inhibitor was co-applied with a pH 6.5 stimulus. Cumulative concentration responses were obtained for each well using 3–4 incrementing concentrations of inhibitor. Concentration response curves for each well were constructed and mean ± S.E.M values for IC50 are given.
To assess the pH sensitivity of ASIC1a responses, pipette tips were loaded with 5 μl of pH 7.4 wash solution followed by 5 μl of activating extracellular solution (pH 7.2 to 4.8). For each sweep, the baseline current was recorded for 1 s in pH 7.4 control solution before the application of the 5-μl activating solution, and then the pH 7.4 wash solution was dispensed with a delay of 1 s to allow for recording of channel opening and desensitization in the presence of ligand before ligand wash-off. Application of the wash solution was followed by aspiration of liquid (50 μl of 90 μl total volume) from each well after a delay of 4 s, before a second wash step with pH 7.4 was performed prior to the application of the next activating pH (interval between stimuli 140 s). Each well received an addition of pH 6.5 solution followed by application of a test pH, and this sequence was repeated a second time to enable data from each cell to be normalized to the control pH 6.5 addition. The pH response curve was constructed across multiple wells with replicates of 48. Pharmacology experiments were performed as described above in “puff” application.
Concentration response curves were fit using a Hill Equation. Statistical comparison of IC50 values for Benzamil was performed using a Student’s t test in Igor Pro 8 (Wavemetrics). […] Z-Factor (Z‘) is calculated using the equation: […]

The mark [4] stands for this setting: 1X single hole chip, Stacked Puff.
[5] abbreviates: 4X multi-hole chip, Stacked Puff.

Turning to `NC(=NCc1ccccc1)NC(=O)c1nc(Cl)c(N)nc1N` [Benzamil], the IC50 (commonly the concentration needed to halve the response being measured) on hASIC1a [1] (2 min pre-incubation, read-out: IC50 potency) was 4.66 µM; at hASIC1a [2] (read-out: IC50) it was 3.49 µM; on hASIC1a [3] (1X single hole chip, Puff), 1.37 µM; on hASIC1a [3] (setting [4]) it was 2.48 ± 0.18 µM; against hASIC1a [3] (4X multi-hole chip, Puff), 1.43 µM and 1.47 µM; on hASIC1a [3] (setting [5]) it was 2.2 ± 0.08 µM. For the same compound, the Hill slope (commonly a measure of the steepness of the concentration-response curve) was 1.1 on hASIC1a [1]; 1.07 ± 0.02 on hASIC1a [3] (1X single hole chip, Puff); 1.26 ± 0.03 on hASIC1a [3] (setting [4]); 1.18 ± 0.03 and 1.12 ± 0.02 on hASIC1a [3] (4X multi-hole chip, Puff); 1.12 ± 0.02 on hASIC1a [3] (setting [5]). The “Hill slope (Hn)” value at hASIC1a [2] amounted to 1.18.

On to `N=C(N)NC(=O)c1nc(Cl)c(N)nc1N` [Amiloride], for which the Hill slope on hASIC1a [1] was 0.9; at hASIC1a [3] (1X single hole chip, Puff), 1.20 ± 0.05; at hASIC1a [3] (setting [4]), 1.39 ± 0.02; at hASIC1a [3] (4X multi-hole chip, Puff), 1.19 ± 0.02 and 1.14 ± 0.01; on hASIC1a [3] (setting [5]), 1.24 ± 0.02. On hASIC1a [2], the “Hill slope (Hn)” value is 0.91.

Source of the values: publication PMC9629855, “Development of ASIC1a ligand-gated ion channel drug screening assays across multiple automated patch clamp platforms” (Frontiers in Molecular Neuroscience, 2022).
